Square brackets hold non-standard residues; d marks the D form. Ends that are not written are not given here. Cit = NC(=O)NCCC[C@H](N)C(=O)O; Orn = NCCC[C@H](N)C(=O)O; Nva = CCC[C@H](N)C(=O)O

The test system of one test is fibrillogenesis. Briefly: Regulation of fibrillogenesis by synthetic peptides. As to conditions: peptides complying with the [+,-,0,+] charge pattern; no method given.
In test [1] the test system is EFT-200 three-dimensional human skin model. Put plainly: Collagen fibril diameter in EFT-200 three-dimensional human skin model (transmission electron microscopy). It counts as cell-based. Conditions: for average of the diameters of the collagen fibrils observed: peptide 0.1 mg/mL in culture medium, changed daily for 14 days, untreated tissue 6.825 nm; for reduction of the diameter of the collagen fibers: peptide 0.1 mg/mL, 14 days, versus untreated tissue. Here is the method: Starting from an EFT-200 three-dimensional human skin model (MatTek Corporation), the tissues were treated with H-Lys-Asp-Ile-Cit-NH2 and with H-Lys-Asp-Val-Cit-NH2 at a concentration of 0.1 mg/mL in culture medium. The latter was changed daily for 14 days, adding peptide at the same concentration in each change. On day 14, the tissues were fixed with a solution of 2% paraformaldehyde and 2.5% glutaraldehyde in 0.1M phosphate buffer, pH 7.4, for at least 2 hours at 4° C. The post-fixing was then carried out with 1% osmium tetroxide containing 0.8% potassium ferricyanide for 1 hour at 4° C. The tissues were then dehydrated in alcohols and were slowly included in epoxy resin (Spurr). The samples were cut and oriented correctly in the block, allowing them to polymerize for 48 hours at 60° C.

As to [Orn]D[Nva]H, the effect on fibrillogenesis result with fibrillogenesis is on record as “no effect on fibrillogenesis”.
For H-KDI[Cit]-NH2, in test [1], the “average of the diameters of the collagen fibrils observed” value was found to be 5.791 nm and the “reduction of the diameter of the collagen fibers” value is listed as 15.1%.
As for “His-Asp-Ala-Arg (HDAR; printed: His-Asp-Ala-Arg) [comparison peptide complying with the [+,-,0,+] charge pattern]”, the effect on fibrillogenesis result with fibrillogenesis was “no effect on fibrillogenesis”.
As to “His-Asp-Ile-His (HDIH; printed: His-Asp-Ile-His) [comparison peptide complying with the [+,-,0,+] charge pattern]”, the effect on fibrillogenesis entry in the test on fibrillogenesis is given as “no effect on fibrillogenesis”.
As for RELH, the effect on fibrillogenesis entry with fibrillogenesis is recorded as “capable of regulating fibrillogenesis”.
Turning to H-KDV[Cit]-NH2, in test [1], the “average of the diameters of the collagen fibrils observed” value stood at 5.774 nm and the “reduction of the diameter of the collagen fibers” value was 15.5%.

These data come from patent US9393186B2, “Synthetic peptides useful in the treatment of the skin and use thereof in cosmetic or dermopharmaceutical compositions” (Lipotec, S.A., priority 2006, dated 2016).
